Reference: US9499550B2 (BRISTOL-MYERS SQUIBB COMPANY, priority 2012, dated 2016)
Like-named read-outs stand apart in the source and are kept apart here.

Columns and labels:
[1] = test system: HCV genotype 1a (H77 strain) replicon in HUH-7 cells; assay: HCV replicon luciferase reporter assay, genotype 1a; type: cell-based; conditions: Hepatitis C virus, Huh-7, 72 h, 3 days incubation, read-out: LE_1a (EC50, range)
How it was run: (§1)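 Replicon inhibition for both genotypes was measured as Renilla luciferase signal (EnduRen, 7.5 μM final, 2 h) after 3-day, 37° C exposure of replicon-bearing HUH-7 cells in 4% FCS DMEM, 0.5% DMSO. The 1b construct carries S1179I; the 1a H77 construct carries P1496L and S2204I. Twenty-point, 3-fold dilutions were fitted four-parametrically for EC50, and CC50 was taken from multiplexed Cell Titer-Blue.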

[2] = test system: HCV genotype 1b (Con1) replicon in HUH-7 cells; assay: HCV replicon luciferase reporter assay, genotype 1b; type: cell-based; conditions: Hepatitis C virus, Huh-7, 72 h, 3 days incubation, read-out: LE_1b (EC50, range)
How it was run: as §1

[3] = HCV genotype 1a replicon luciferase assay, range class
[4] = HCV genotype 1b replicon luciferase assay, range class
[5] = HCV genotype 1a replicon luciferase
[6] = HCV genotype 1b replicon luciferase

Compound	EC50 [1, 3] [nM]	EC50 [2, 4] [nM]	EC50 [1, 5] [nM]	EC50 [2, 6] [nM]
COc1ccc2c(O[C@@H]3C[C@H]4C(=O)N[C@]5(C(=O)NS(=O)(=O)C6CC6)C[C@H]5/C=C\CC[C@@H](C)C[C@@H](C)[C@H](NC(=O)OC(C)(C)C)C(=O)N4C3)nc(-c3ccc(OC)c(F)c3)cc2c1 [Compound 3050, tert-butyl ((2R,6S,7R,9R,13aS,14aR,16aS,Z)-14a-((cyclopropylsulfonyl)carbamoyl)-2-((3-(3-fluoro-4-methoxyphenyl)-6-methoxyisoquinolin-1-yl)oxy)-7,9-dimethyl-5,16-dioxo-1,2,3,5,6,7,8,9,10,11,13a,14,14a,15,16,16a-hexadecahydrocyclopropa[e]pyrrolo[1,2-a][1,4]diazacyclopentadecin-6-yl)carbamate]	< 5.46	< 5.46		
CCOc1ccc2nc(C(F)(F)F)c(O[C@@H]3C[C@H]4C(=O)N[C@]5(C(=O)NS(=O)(=O)C6(C)CC6)C[C@H]5/C=C\CC[C@H](C)C[C@@H](C)[C@H](NC(=O)OC(C)(C)C)C(=O)N4C3)nc2c1 [Compound 4347, tert-butyl ((2R,6S,7R,9S,13aS,14aR,16aS,Z)-2-((7-ethoxy-3-(trifluoromethyl)quinoxalin-2-yl)oxy)-7,9-dimethyl-14a-(((1-methylcyclopropyl)sulfonyl)carbamoyl)-5,16-dioxo-1,2,3,5,6,7,8,9,10,11,13a,14,14a,15,16,16a-hexadecahydrocyclopropa[e]pyrrolo[1,2-a][1,4]diazacyclopentadecin-6-yl)carbamate]			5.01 to 35	1.01 to 5
CCCOc1cc2c(Cl)cccc2c(O[C@@H]2C[C@H]3C(=O)N[C@]4(C(=O)NS(=O)(=O)C5CC5)C[C@H]4/C=C\CC[C@@H](C)C[C@@H](C)[C@H](NC(=O)OC4C[C@@H]5C[C@H]5C4)C(=O)N3C2)n1 [Compound 1086, (1S,5S)-bicyclo[3.1.0]hexan-3-yl((2R,6S,7R,9R,13aS,14aR,16aS,Z)-2-((5-chloro-3-propoxyisoquinolin-1-yl)oxy)-14a-((cyclopropylsulfonyl)carbamoyl)-7,9-dimethyl-5,16-dioxo-1,2,3,5,6,7,8,9,10,11,13a,14,14a,15,16,16a-hexadecahydrocyclopropa[e]pyrrolo[1,2-a][1,4]diazacyclopentadecin-6-yl)carbamate]	< 5.46	< 5.46		
CC[C@@H]1C[C@H](C)CC/C=C\[C@@H]2C[C@@]2(C(=O)NS(=O)(=O)C2(C)CC2)NC(=O)[C@@H]2C[C@@H](Oc3ncc(OC)c4ccc(F)cc34)CN2C(=O)[C@H]1NC(=O)OC(C)(C)C(F)F [Compound 5529, 1,1-difluoro-2-methylpropan-2-yl((2R,6S,7R,9R,13aS,14aR,16aS,Z)-7-ethyl-2-((7-fluoro-4-methoxyisoquinolin-1-yl)oxy)-9-methyl-14a-(((1-methylcyclopropyl)sulfonyl)carbamoyl)-5,16-dioxo-1,2,3,5,6,7,8,9,10,11,13a,14,14a,15,16,16a-hexadecahydrocyclopropa[e]pyrrolo[1,2-a][1,4]diazacyclopentadecin-6-yl)carbamate]			1.01 to 5	0.1 to 0.5
COc1cc2ccnc(O[C@@H]3C[C@H]4C(=O)N[C@]5(C(=O)NS(=O)(=O)C6CC6)C[C@H]5/C=C\CC[C@@H](C)C[C@@H](C)[C@H](NC(=O)OC(C)(C)C(F)(F)F)C(=O)N4C3)c2cc1OC [Compound 5387, 1,1,1-trifluoro-2-methylpropan-2-yl((2R,6S,7R,9R,13aS,14aR,16aS,Z)-14a-((cyclopropylsulfonyl)carbamoyl)-2-((6,7-dimethoxyisoquinolin-1-yl)oxy)-7,9-dimethyl-5,16-dioxo-1,2,3,5,6,7,8,9,10,11,13a,14,14a,15,16,16a-hexadecahydrocyclopropa[e]pyrrolo[1,2-a][1,4]diazacyclopentadecin-6-yl)carbamate]			1.01 to 5	1.01 to 5
COc1cc2c(OC)cnc(O[C@@H]3C[C@H]4C(=O)N[C@]5(C(=O)NS(=O)(=O)C6(CF)CC6)C[C@H]5/C=C\CC[C@@H](C)C[C@@H](C)[C@H](NC(=O)C(C)(C)C)C(=O)N4C3)c2cc1F [Compound 4116, (2R,6S,7R,9R,13aS,14aR,16aS,Z)-2-(7-fluoro-4,6-dimethoxyisoquinolin-1-yloxy)-N-(1-(fluoromethyl)cyclopropylsulfonyl)-7,9-dimethyl-5,16-dioxo-6-pivalamido-1,2,3,5,6,7,8,9,10,11,13a,14,14a,15,16,16a-hexadecahydrocyclopropa[e]pyrrolo[1,2-a][1,4]diazacyclopentadecine-14a-carboxamide]			< 5.46	< 5.46
[2H]C([2H])([2H])C(OC(=O)N[C@@H]1C(=O)N2C[C@H](Oc3nccc4c5c(ccc34)N(C)CCO5)C[C@H]2C(=O)N[C@]2(C(=O)NS(=O)(=O)C3CC3)C[C@H]2/C=C\CC[C@@H](C)C[C@H]1C)(C([2H])([2H])[2H])C([2H])([2H])[2H] [Compound 5288, 1,1,1,3,3,3-hexadeutero-2-(trideuteromethyl)propan-2-yl((2R,6S,7R,9R,13aS,14aR,16aS,Z)-14a-((cyclopropylsulfonyl)carbamoyl)-7,9-dimethyl-2-((4-methyl-3,4-dihydro-2H-[1,4]oxazino[2,3-f]isoquinolin-7-yl)oxy)-5,16-dioxo-1,2,3,5,6,7,8,9,10,11,13a,14,14a,15,16,16a-hexadecahydrocyclopropa[e]pyrrolo[1,2-a][1,4]diazacyclopentadecin-6-yl)carbamate]			< 5.46	< 5.46
CCCOc1cnc(O[C@@H]2C[C@H]3C(=O)N[C@]4(C(=O)NS(=O)(=O)C5CC5)C[C@H]4/C=C\CC[C@@H](C)C[C@@H](C)[C@H](NC(=O)O[C@H](C)C(F)(F)F)C(=O)N3C2)c2ccccc12 [Compound 5095, (R)-1,1,1-trifluoropropan-2-yl((2R,6S,7R,9R,13aS,14aR,16aS,Z)-14a-((cyclopropylsulfonyl)carbamoyl)-7,9-dimethyl-5,16-dioxo-2-((4-propoxyisoquinolin-1-yl)oxy)-1,2,3,5,6,7,8,9,10,11,13a,14,14a,15,16,16a-hexadecahydrocyclopropa[e]pyrrolo[1,2-a][1,4]diazacyclopentadecin-6-yl)carbamate]			4.82 to 103	4.82 to 103
C[C@H]1CC/C=C\[C@@H]2C[C@@]2(C(=O)NS(=O)(=O)C2CC2)NC(=O)[C@@H]2C[C@@H](Oc3nc4ccccc4c4ccccc34)CN2C(=O)[C@@H](NC(=O)OC(C)(C)C)[C@H](C)C1 [Compound 5182, tert-butyl ((2R,6S,7R,9S,13aS,14aR,16aS,Z)-14a-((cyclopropylsulfonyl)carbamoyl)-7,9-dimethyl-5,16-dioxo-2-(phenanthridin-6-yloxy)-1,2,3,5,6,7,8,9,10,11,13a,14,14a,15,16,16a-hexadecahydrocyclopropa[e]pyrrolo[1,2-a][1,4]diazacyclopentadecin-6-yl)carbamate]			< 5.46	< 5.46
COc1ccc2c(O[C@@H]3C[C@H]4C(=O)N[C@]5(C(=O)NS(=O)(=O)C6(C)CC6)C[C@H]5/C=C\CC[C@@H](C)C[C@@H](C)[C@H](NC(=O)O[C@H](C)C(F)(F)F)C(=O)N4C3)nc(-c3ccc(F)cc3)cc2c1 [Compound 3083, (R)-1,1,1-trifluoropropan-2-yl ((2R,6S,7R,9R,13aS,14aR,16aS,Z)-2-((3-(4-fluorophenyl)-6-methoxyisoquinolin-1-yl)oxy)-7,9-dimethyl-14a-(((1-methylcyclopropyl)sulfonyl)carbamoyl)-5,16-dioxo-1,2,3,5,6,7,8,9,10,11,13a,14,14a,15,16,16a-hexadecahydrocyclopropa[e]pyrrolo[1,2-a][1,4]diazacyclopentadecin-6-yl)carbamate]	< 5.46	< 5.46		
